Test results reported in patent US4883666A, “Controlled drug delivery system for treatment of neural disorders” (Massachusetts Institute of Technology, priority 1987, dated 1989).
Where two headings read alike, the source gives them in different places.

How the values were obtained:
behavioral deficits = conditions: intracerebral injections; cited from earlier work
Parkinson's disease = conditions: systemic application; cited from earlier work
Parkinsonian patients = conditions: three patients; continuous i.v. infusion replacing oral levodopa; cited from earlier work
[1] = Intracerebral dialysis: extracellular fluid dopamine levels in the striatum after implantation of dopamine containing EVA pellets
Protocol: Male Sprague-Dawley Ras (150-200 g) were anaesthetized with pentobarbitone (60 mg/kg) and placed in a David Kopf stereotaxic frame. The skull was exposed and a 4 mm diameter hole drilled centered at coordinates A +0.4 mm and R 2.6 mm using the Paxinos and Watson coordinates. The right cortex was aspirated using a mild vacuum down to the striatal surface (ventral - 3 mm). Pellets were implanted with the uncoated pore, when present, facing ventrally and imbedded in the body of the striatum. Both control, non-dopamine containing pellets, and dopamine containing (2 mg) pellets were implanted. In vivo release was measured on the third, twentieth and sixty-fifth days. Intracerebral Dialysis Method:
Rats were anaesthetized with pentobarbitone (60 mg/kg) and placed in the Kopf stereotaxic frame. The skull was exposed and a Carnegie Medicin dialysis probe (4 mm membrane length, 0.5 mm o.d., 5,000 m.w. cut off) implanted into the striatum at Paxinos and Watson coordinates A +2.1, R (or L) 1.9, V -7 mm. Probes were perfused with an artificial CSF medium, 1 mM Ca, pH 7.35, at a flow rate of 1.5 microliter/min using a CMA 100 pump. Fifteen minute samples were collected into 5 microliters of 0.5M perchloric acid. The probe was calibrated by measuring the recovery of standards of known concentration, 100 nM. Dialysates were immediately assayed by direct injection onto a highly sensitive reverse-phase, isocratic HPLC with an ESA 5100 coulochem detector. Chromatograms were completed within 11 minutes. After an initial period of "injury release", 60 to 90 minutes post probe implantation, stable concentrations of dopamine were measured for a minimum of three […] collections.
The first rat had probes inserted into the right striatum on the third and sixty-fifth days and in the left striatum on the sixty-fifth day post polymer implantation. The second rat had probes inserted into both the right and left striata on the twentieth day.

[2] = both in vitro and in vivo; cited from earlier work
[3] = Description: Ethylene vinyl acetate slabs containing 0%, 30%, 40% and 50% dopamine by weight formed by solvent casting as previously described were punched out to form round discs, approximately 3.0 mm in diameter. These discs were then coated by an additional layer of ethylene vinyl acetate either (i) completely; (ii) completely except for one concave pinhole present on one surface (iii) completely except for two concave pinholes present, one on each surface; (iv) partially, with one surface coated and the other not coated; or (v) not coated at all.
The release of dopamine into 5 ml of a 150 mM NaCI, 0.2% EDTA solution was monitored by measuring the absorbance at 280 nm of the solution at various time points and by comparison to a linear standard curve comparing absorbance at 280 nm to concentration of dopamine in the same buffered solution. The results are portrayed as either the absolute mass released over the time course of 65 days or as the amount of dopamine released as a fraction of the total amount present in the pellet.
Samples of these solutions were injected into High Pressure Liquid Chromatography system designed to measure absolute quantities of dopamine and to distinguish dopamine from its oxidation products or other metabolites.

Nerve Growth Factor
behavioral deficits (behavioral deficits): reduces behavioral deficits

N[C@@H](Cc1ccc(O)c(O)c1)C(=O)O [L-dopa]
behavioral symptoms of Parkinson's disease (Parkinson's disease): can be reduced
clinical response (Parkinsonian patients): prolonged and stable clinical response

NCCc1ccc(O)c(O)c1 [dopamine]
persistence of dopamine release into the extracellular fluid of the implanted striatum ([1]; not evident on third day, seen by twentieth day): persists for at least two months
increase in dopamine levels ([1]; rat, in vivo): > 200 fold
dopamine concentration in the extracellular fluid (ECF) ([1]; rat, in vivo, 28800 min): 30.5 nM
dopamine level in the extracellular fluid (ECF) ([1]; rat, in vivo, 93600 min): 36 nM
level of dopamine in the right striatum relative to normal ([1]; third day): unchanged from normal
release from EVA over an extended period of time [2]: linear, concentration and time-dependent release
substance released that was dopamine (not oxidation products or other metabolites), HPLC ([3]; High Pressure Liquid Chromatography of release solutions): greater than 99.9%
release of dopamine ([3]; coated fully except for one hole, 30% loading, up to 65 days in vitro): linear release
initial release of dopamine (every thirty minutes over several hours) ([3]; coated fully except for one hole, 40% dopamine): release is constant
release of dopamine ([3]; disc coated on one side, 30%, 40% or 50% dopamine): the release is not linear
release of dopamine ([3]; disc containing 30%, 40% or 50% dopamine, fully coated, throughout the time period): no release of dopamine
release of dopamine ([3]; disc not coated, 30%, 40% or 50% dopamine): release occurred rapidly, in a non-linear manner
release of dopamine ([3]; fully coated except for two holes, 30% loading): Virtual linear release
